Data taken from patent US8609161B2, “Conglutin-gamma as medicament and diet supplement” (Ospedale San Raffaele S.R.L., priority 2008, dated 2013).
Entries after “also recorded” stand apart in the source; their conditions may differ.

Key:
Akt-1 = Akt-1 protein, western blot of stimulated C2C12 myotubes; type: cell-based, mouse
Experimental: (§1) C2C12 myoblasts were cultured at 37° C. in humidified 5% CO2 atmosphere in a growth medium (GM) containing DMEM supplemented with 20% (v/v) FBS (fetal bovine serum), 1% penicillin-streptomycin and 1% L-glutamine. Cell differentiation was initiated by placing 70% confluent cell cultures in DMEM supplemented with 1% HS (horse serum) and antibiotics (DM). To prepare myotube cultures, myoblasts were cultured in DM for 72 hours. Cells used as control (C) were switched back to GM for the duration of the experiment. Other three groups of cells were replaced in GM with the selective addition respectively of insulin (I; 100 nM), conglutin-γ (Cg; 0.5 mg/ml) and metformin (Mf; 400 μM). For each experimental condition cells were lysed at 0, 5, 10, 20 and 30 minutes after the stimuli addition.
(§2) C2C12 myofibers were homogenized in lysis buffer (50 mM Tris/HCl, pH 7.4, 150 mM NaCl, 1% Triton X-100, 1 mM sodium orthovanadate (Na3VO4), 1 mM EDTA, 1 mM PMSF, 1 mg/ml aprotinin, 1 mg/ml leupeptin, 1 mg/ml pepstatin) and shaked for 1 h at 4° C. Detergent-insoluble material was removed from the cell suspension by centrifugation at 12,000×g for 30 min. Aliquots of 30 µg supernatant proteins from the different samples were resolved by 8% (IRS1, MHC, myogenin and p-CBL), 10% (PI3K p85, AKT1, p-p70 S6K and PKC), 12% (eIF-4E, p-ERK1, p-ERK2, caveolin-3 and flottilin-2) and 15% (PHAS1) SDS-PAGE (Sodium Dodecyl Sulfate—PolyAcrylamide Gel Electrophoresis). Electrophoresed proteins were transferred onto nitrocellulose membranes using a Bio-Rad Mini Trans-Blot system. […]
(§3) The membrane was stripped and re-probed with an antibody to actin or tubulin to confirm equal protein loading per sample. Quantitative measurement of immunoreactive bands was performed by densitometric analysis using the Scion image software (Scion corporation, Frederick, Md., USA).

ERK2 = assay: ERK-2 phosphorylation, western blot of stimulated C2C12 myotubes; type: cell-based, mouse
Experimental: as §1, §2, §3

caveolin-3 = caveolin-3 protein, western blot of stimulated C2C12 myotubes; type: cell-based, mouse; details: 30 min / toward the end of the experiment; I 100 nM, Mf 400 μM
Experimental: as §1
(§4) C2C12 myofibers were homogenized in lysis buffer (50 mM Tris/HCl, pH 7.4, 150 mM NaCl, 1% Triton X-100, 1 mM sodium orthovanadate (Na3VO4), 1 mM EDTA, 1 mM PMSF, 1 mg/ml aprotinin, 1 mg/ml leupeptin, 1 mg/ml pepstatin) and shaked for 1 h at 4° C. […]
as §3

ERK1 = assay: ERK-1 phosphorylation, western blot of stimulated C2C12 myotubes; type: cell-based, mouse
Experimental: as §1, §4, §3

ERK1 and ERK2 = ERK1 and ERK2 phosphorylation in gastrocnemius muscle at end of IPGTT; type: in vivo, mouse; details: 120 min; conglutin-gamma 120 mg/kg i.p., insulin 0.5 U/kg i.p.
Experimental: (§5) For this protocol C57B1/6 wild type mice were utilized. Intraperitoneal glucose tolerance test (IPGTT) was performed by injecting glucose (2 g/kg body weight) i.p. in three groups of overnight-fasted mice. Thirty minutes before glucose administration, conglutin-gamma (120 mg/kg b.w.) was injected i.p. in the “Conglutin” group of mice. In the “Insulin” group of mice, insulin (0.5 U/kg b.w.) was administered i.p. at the same time of glucose injection (time 0). Blood glucose levels were determined prior (30 and 0 minutes) to injection and 30, 60, 90, and 120 min after injection. Blood samples were obtained from the tail vein and plasmas used to measure glucose concentration by the glucose reflectometer. At the end of the study gastrocnemius muscle was taken. A group of overnight-fasted mice (basal) was sacrificed before the study and gastrocnemius muscle taken. A group of animals that received saline instead of insulin or conglutin-gamma, was used as control (saline).
(§6) Collected gastrocnemius muscle was frozen in liquid nitrogen immediately after excision and then stored at −80° C. A gram of tissue with 1.5 ml of ice cold RIPA buffer was disrupted and homogenized with a dounce homogenizer, maintaining temperature at 4° C. throughout all procedures, then incubated on ice for 30 minutes. The homogenate was transferred to microcentrifuge tubes, centrifugated at 10,000×g for 10 minutes at 4° C. […]

PHAS-1 = PHAS-1 α and β bands, western blot of stimulated C2C12 myotubes; type: cell-based, mouse; details: I 100 nM, Cg 0.5 mg/ml, Mf 400 μM
Experimental: as §1, §4, §3

myogenin = myogenin content, western blot of stimulated C2C12 myotubes; type: cell-based, mouse; details: I 100 nM, Cg 0.5 mg/ml, Mf 400 μM
Experimental: as §1, §4, §3

p70S6K [1] = assay: p70S6K phosphorylation, western blot of stimulated C2C12 myotubes; type: cell-based, mouse; details: Mf 400 μM; for p70S6K phosphorylation: I 100 nM, Cg 0.5 mg/ml
Experimental: as §1
C2C12 myofibers were homogenized in lysis buffer (50 mM Tris/HCl, pH 7.4, 150 mM NaCl, 1% Triton X-100, 1 mM sodium orthovanadate (Na3VO4), 1 mM EDTA, 1 mM PMSF, 1 mg/ml aprotinin, 1 mg/ml leupeptin, 1 mg/ml pepstatin) and shaked for 1 h at 4° C. Detergent-insoluble material was removed from the cell suspension by centrifugation at 12,000×g for 30 min. Aliquots of 30 µg supernatant proteins from the different samples were resolved by 8% (IRS1, MHC, myogenin and p-CBL), 10% (PI3K p85, AKT1, p-p70 S6K and PKC), 12% (eIF-4E, p-ERK1, p-ERK2, caveolin-3 and flottilin-2) and 15% (PHAS1) SDS-PAGE (Sodium Dodecyl Sulfate—PolyAcrylamide Gel Electrophoresis). Electrophoresed proteins were transferred onto nitrocellulose membranes using a Bio-Rad Mini Trans-Blot system. The blots were blocked with 50 mg/ml non-fat dry milk in 20 mM Tris/HCl, pH 7.4, 100 mM NaCl for 1 h at room temperature and then incubated overnight at 4° C. with respective primary antibodies in 10 mg/ml non-fat dry milk, 20 mM TRIS/HCl pH 7.4 and 100 mM NaCl and 0.3% Tween 20. After several washes the membranes were incubated with species-specific secondary antibodies. Immunoreactive bands were visualized by an enhanced chemiluminescence method (Amersham Pharmacia Biotech, Piscataway, N.J., USA).
as §3

eIF4E [2] = assay: eIF4E protein, western blot of stimulated C2C12 myotubes; type: cell-based, mouse; details: for eIF4E protein concentration increase: I 100 nM
Experimental: as §1, §2, §3

IRS-1 = IRS-1 protein content, western blot of stimulated C2C12 myotubes; type: cell-based, mouse; details: I 100 nM, Cg 0.5 mg/ml, Mf 400 μM; for IRS-1 activation: 30 min
Experimental: as §1, §2, §3

GSK-3 = GSK-3 in gastrocnemius muscle at end of IPGTT; type: in vivo, mouse; details: 120 min; conglutin-gamma 120 mg/kg i.p., insulin 0.5 U/kg i.p.
Experimental: as §5, §6

eIF4E [3] = assay: eIF4E protein in gastrocnemius muscle at end of IPGTT; type: in vivo, mouse; details: 120 min; conglutin-gamma 120 mg/kg i.p., insulin 0.5 U/kg i.p.
Experimental: as §5, §6

Cbl = Cbl phosphorylation, western blot of stimulated C2C12 myotubes; type: cell-based, mouse; details: 30 min; I 100 nM
Experimental: as §1, §4, §3

[4] = Intraperitoneal glucose tolerance test (IPGTT), blood glucose; type: in vivo, C57B1/6 wild type mice
Experimental: as §5

C2C12 myoblasts = assay: Immunofluorescence of MHC-positive myotubes (differentiation, hypertrophy); type: cell-based, mouse; details: vs un-stimulated differentiated muscle cells; I 100 nM, Cg 0.5 mg/ml, Mf 400 μM
Experimental: To prepare myotube cultures, myoblasts were cultured in DM for 72 hours. Cells used as control (C) were switched back to GM for the duration of the experiment. […] For each experimental condition cells were lysed at 0, 5, 10, 20 and 30 minutes after the stimuli addition. For immunofluorescence analysis C2C12 myoblasts differentiated as above were stimulated with insulin, conglutin-γ and metformin for 30 minutes. In differentiated cells immunostained with anti-MHC the DAPI stained nuclei per myotube, myotubes length and diameter were determined and expressed as average.

[5] = tested on: insulin receptor beta (IR-beta); assay: IR-beta protein content in gastrocnemius muscle at end of IPGTT; type: in vivo, mouse; details: 120 min, with respect to the basal and saline group; conglutin-gamma 120 mg/kg i.p., insulin 0.5 U/kg i.p.
Experimental: as §5, §6

AKT1 = AKT1 protein expression in gastrocnemius muscle at end of IPGTT; type: in vivo, mouse; details: 120 min, with respect to the untreated muscle; conglutin-gamma 120 mg/kg i.p., insulin 0.5 U/kg i.p.
Experimental: as §5, §6

flottilin-2 = flottilin-2 protein, western blot of stimulated C2C12 myotubes; type: cell-based, mouse
Experimental: as §1, §4, §3

PKC = PKC protein, western blot of stimulated C2C12 myotubes; type: cell-based, mouse
Experimental: as §1, §4, §3

p85-PI3 kinase = assay: PI3K-p85 subunit, western blot of stimulated C2C12 myotubes; type: cell-based, mouse; details: I 100 nM, Cg 0.5 mg/ml
Experimental: as §1, §4, §3

MHC = MHC gene expression (protein content), western blot of stimulated C2C12 myotubes; type: cell-based, mouse; details: Cg 0.5 mg/ml
Experimental: as §1, §4, §3

p70S6K [6] = assay: p70S6k phosphorylation in gastrocnemius muscle at end of IPGTT; type: in vivo, mouse; details: 120 min; conglutin-gamma 120 mg/kg i.p., insulin 0.5 U/kg i.p.
Experimental: as §5, §6

[7] = Mf 400 μM vs insulin and conglutin-γ

insulin: primary hormone responsible for proteosynthesis control and glucose homeostasis; comparator stimulus
Akt-1 protein concentration change (Akt-1; 20 min, I 100 nM, Cg 0.5 mg/ml, Mf 400 μM): ~13% | AKT-1 phosphorylation, in words (Akt-1; any time 5-30 min, I 100 nM, Cg 0.5 mg/ml): modest stimulation above basal at any time | ERK2 activation (ERK2; 10 min, I 100 nM): ~20% | ERK2 activation (maximum) (ERK2; 30 min, I 100 nM, Cg 0.5 mg/ml): ~28% | caveolin-3 protein concentration increase (caveolin-3): ~34% | ERK1 activation (peak) (ERK1; 20 min, I 100 nM, Cg 0.5 mg/ml): ~27% | ERKs phosphorylation in muscle (ERK1 and ERK2): able to increment | density of PHAS-1 α and β bands in respect to the control (PHAS-1): more increased | myogenin activation (myogenin): overlapping | p70S6K phosphorylation (p70S6K [1]; 30 min): ~94% | p70S6K phosphorylation (p70S6K [1]; within 5 min): ~40% | eIF4E protein concentration increase (eIF4E [2]; 30 min (end of the experiment), Cg 0.5 mg/ml): ~30% | eIF4E protein concentration increase (eIF4E [2]; persistent from 5 to 20 min): ~45% | IRS-1 protein content stimulation / activation (IRS-1; 20 min): ~32% | IRS-1 activation (IRS-1): ~35% | GSK-3 phosphorylation in muscle (GSK-3): increased | eIF4E activation in muscle (eIF4E [3]): able to increment | Cbl phosphorylation (maximal) (Cbl): ~56% | blood glucose concentration at the end of the study ([4]; 120 min after glucose 2 g/kg i.p., conglutin-gamma 120 mg/kg i.p. at -30 min, insulin 0.5 U/kg i.p. at time 0): ~120 mg/dL | course of blood glucose decrease during IPGTT ([4]; glucose 2 g/kg i.p., conglutin-gamma 120 mg/kg i.p., insulin 0.5 U/kg i.p.): decreased rapidly | fusion index (C2C12 myoblasts): gradually increase | myotubes diameter (C2C12 myoblasts): gradually increase | myotubes length (C2C12 myoblasts): gradually increase | number of nuclei present in MHC positive myotubes (C2C12 myoblasts): gradually increase | IR-beta protein content in muscle [5]: trend towards IR-beta protein content increment | AKT1 expression in muscle (AKT1): able to increase AKT1 expression | flottilin-2 protein concentration increase (peak) (flottilin-2; 10 min, I 100 nM, Cg 0.5 mg/ml): ~60% | PKC concentration increase (PKC; 20 min, I 100 nM, Cg 0.5 mg/ml): ~32% | p85-PI3 kinase activation (p85-PI3 kinase; 30 min (end of the experiment)): ~56% | p85-PI3 kinase activation (p85-PI3 kinase; within 5 min): ~62% | MHC expression increase (MHC; with respect to the un-stimulated differentiated muscle cells, I 100 nM): ~600% | p70S6k phosphorylation in muscle (p70S6K [6]): increased

CN(C)C(=N)N=C(N)N [metformin, Metformin]
Emax (Akt-1; Mus musculus, C2C12, 5 min, 5 min, Mf 400 μM, read-out: Akt-1 protein concentration change (maximal effect)): ~20% | ERK2 activation, in words (ERK2; [7]): higher activation | caveolin-3 protein concentration increase (caveolin-3): above 70% | ERK1 activation, in words (ERK1; [7]): higher activation | density of PHAS-1 α and β bands in respect to the control (PHAS-1): more increased | myogenin activation (myogenin): did not exert any effect | p70S6K phosphorylation (p70S6K [1]; 30 min): ~32% | Emax (p70S6K [1]; Mus musculus, C2C12, 10 min, within 10 min, read-out: p70S6K phosphorylation (maximal effect)): ~46% | eIF4E activation, in words (eIF4E [2]; Mf 400 μM): not able to exert an activation | IRS-1 activation (IRS-1): ~76% | fusion index (C2C12 myoblasts): gradually increase | myotubes diameter (C2C12 myoblasts): gradually increase | myotubes length (C2C12 myoblasts): gradually increase | number of nuclei present in MHC positive myotubes (C2C12 myoblasts): gradually increase | flottilin-2 activation, in words (flottilin-2; Mf 400 μM): did not exert any flottilin-2 activation | PKC protein concentration stimulation, in words (PKC; [7]): more than the other two stimuli | MHC gene expression, in words (MHC; with respect to un-stimulated differentiated muscle cells, Mf 400 μM): unable to produce the same effect; also recorded: not able to induce the same gene expression
